# Assay results taken from patent US20030092753A1, “Methods for the treatment and prevention of neurodegenerative conditions” (Wyeth, priority 1999, published 2003).
# System: rat hippocampal slices
# Assay: Reduction of azide-induced ischemic efflux of glutamate in rat hippocampal slices
# Type: cell-based
# Conditions: AUC vs control, statistically significant
# Experimental: Adatanserin was evaluated for its ability to reduce the azide-induced ischemic efflux of glutamate in rat hippocampal slices. Three Krebs buffers were used in the experiments. Normal Krebs buffer consisted of a solution containing the following: (122 mM NaCl, 3 mM KCl, 24 mM NaHCO3, 10 mM glucose, 0.315 mM K2HPO4, 1.2 mM MgSO4, 4 mM CaCl2). Aglycemic Krebs buffer was similar to the normal buffer with the exception that glucose was not added. Ischemic Krebs buffer was the aglycemic solution which contained varying concentrations of sodium azide (0-30 mM).
# Rat hippocampi were dissected on a cold platform and suspended in ice cold oxygenated normal Krebs buffer. The tissue was cross-chopped at 350 microns on a McIlwain tissue chopper, then resuspended and washed three times with ice cold normal Krebs buffer. […] Amino acid concentrations were analyzed with reverse phase HPLC on a catacholarine column (Keystone Scinetific, 150×3 mm) employing an 0.05 M acetate/methanol gradient. […] Amino acids were visualized by derivatization with naphthalene-2,3-dicarboxaldehyde and fluorimetric detection (Dawson, L. A. et al., Improved Temporal Resolution of Microdialysis Measurement of Glutamate and Aspartate Using Capillary Electrophoresis with Laser Induced Fluorescence Detection. J. Chromatogr. B 1997, 694, 1204-1212). […]
compound,measurement,setting,value
"O=C(NCCN1CCN(c2ncccn2)CC1)C12CC3CC(CC(C3)C1)C2 [adatanserin, N-[2-[4-(2-pyrimidinyl)-1-piperazinyl]ethyl]tricyclo[3.3.1.13.7]decane-1-carboxamide]",reduction of glutamate release (azide-induced ischemic efflux),adatanserin 100 nM,72%
same,reduction of glutamate release (azide-induced ischemic efflux),adatanserin 1000 nM (1 μM),71%
